The assay deals with T1, human recombinant 5-lipoxygenase (Homo sapiens, UniProt P09917).
T1 construct: purchased Cayman 60402
T1 sequence (P09917 1-674): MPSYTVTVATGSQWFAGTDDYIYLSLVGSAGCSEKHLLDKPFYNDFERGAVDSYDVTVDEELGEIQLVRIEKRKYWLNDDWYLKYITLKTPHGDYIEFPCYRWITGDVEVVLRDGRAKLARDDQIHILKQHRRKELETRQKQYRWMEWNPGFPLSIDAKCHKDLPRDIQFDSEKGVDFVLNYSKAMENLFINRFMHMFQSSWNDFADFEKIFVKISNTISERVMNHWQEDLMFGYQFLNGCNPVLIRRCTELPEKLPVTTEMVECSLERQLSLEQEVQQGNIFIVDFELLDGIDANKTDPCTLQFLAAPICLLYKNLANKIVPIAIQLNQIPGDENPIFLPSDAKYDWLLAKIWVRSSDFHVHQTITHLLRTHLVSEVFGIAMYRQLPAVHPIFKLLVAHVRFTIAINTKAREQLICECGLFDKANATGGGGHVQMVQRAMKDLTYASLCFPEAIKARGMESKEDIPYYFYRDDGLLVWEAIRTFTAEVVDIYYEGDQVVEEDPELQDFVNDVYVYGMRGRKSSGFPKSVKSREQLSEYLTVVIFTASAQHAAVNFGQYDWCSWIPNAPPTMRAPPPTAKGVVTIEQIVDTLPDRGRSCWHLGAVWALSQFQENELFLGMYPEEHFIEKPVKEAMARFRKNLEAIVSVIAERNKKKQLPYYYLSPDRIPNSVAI
Nature of the assay: 5-Lipoxygenase enzyme assay. The class given is biochemical. The settings on record: 70 μM arachidonic acid, pH 7.4, 10 minute incubation; read-out: IC50, inhibition of 5-Lipoxygenase.

pIC50: −log10 of the molar value.

As usually defined, the pIC50 is −log10 of the IC50, conventionally taken in molar units. On to `Cc1c(C)c2c(c(C)c1O)CCC(C)(C=C(Br)Br)O2` (centres unmarked) [2-(2,2-Dibromo-vinyl)-2,5,7,8-tetramethyl-chroman-6-ol], for which the pIC50 was above 6.00.
For `C=CCSCc1c(O)c(C)c(C)c2c1CCC(C)(C)O2` [5-Allylsulfanylmethyl-2,2,7,8-tetramethyl-chroman-6-ol] the value was above 6.00.
